Measurements reported in the supplement of paper PMC10307832.

Columns and labels:
Experiment in all cases: relative viability (nuclei count vs DMSO), 5 days (fraction); higher = more cells survive
[1] = compound: Cc1ccc2nc(NCCN)c3ncc(C)n3c2c1
Method in brief: (§1)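 After an overnight hold at 37 °C, lung cancer cell lines in 1536-well plates were pinned with five library-drug doses (not always all listed), each √10 from the next, on vehicle-anchored plates. The cells stayed 5 days without fresh medium, then a one-step fix, permeabilisation and Hoechst stain preceded 4× imaging and MetaXpress nuclear counts. A plate passed only with control CV under 25% and at least one doubling. Viability is the median, over plates, of treated-well nuclei relative to vehicle-well nuclei.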

[2] = compound: O=C(/C=C/c1ccccc1)NC(NC(=S)Nc1cccc2cccnc12)C(Cl)(Cl)Cl [Salubrinal]
Method in brief: as §1

[3] = compound: O=C(/C=C/c1ccccc1)NC(NC(=S)Nc1cccc2cccnc12)C(Cl)(Cl)Cl [Salubrinal] + COc1cc2c(Oc3ccc(NC(=O)C4(C(=O)Nc5ccc(F)cc5)CC4)cc3F)ccnc2cc1OCCCN1CCOCC1 [Foretinib] (partner 0.25 µM)
Method in brief: (§2)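 After 5 days of treatment, lung cancer cells in 1536-well plates were fixed and stained in a single step (final 0.05% Triton X-100, 1% formaldehyde, 1 ug/ml Hoechst) and their nuclei counted on 4× images. Treatment had been applied by pin tool the day after seeding as one drug alone or as a fixed anchor-drug dose with five library-drug doses (not always all listed) in √10 steps. Relative viability is the nuclei count of treated wells divided by that of vehicle wells, and values are medians of duplicate plates.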

[4] = compound: O=C(/C=C/c1ccccc1)NC(NC(=S)Nc1cccc2cccnc12)C(Cl)(Cl)Cl [Salubrinal] + CS(=O)(=O)N1CCN(Cc2cc3nc(-c4cccc5[nH]ncc45)nc(N4CCOCC4)c3s2)CC1 [Pictilisib] (partner 1 µM)
Method in brief: as §2

Cell Line: UMC-11
- relative viability ([1]; 0.04 µM): 1.01
- relative viability ([1]; 0.1265 µM): 0.918
- relative viability ([1]; 0.4 µM): 0.939
- relative viability ([1]; 1.265 µM): 0.965
- relative viability ([1]; 4 µM): 0.946
- relative viability ([2]; 0.08 µM): 0.901
- relative viability ([2]; 0.253 µM): 0.869
- relative viability ([2]; 0.8 µM): 1.09
- relative viability ([2]; 2.53 µM): 1.01
- relative viability ([2]; 8 µM): 1.03
- relative viability ([3]; first compound 0.08 µM): 1.17
- relative viability ([3]; first compound 0.253 µM): 1
- relative viability ([3]; first compound 0.8 µM): 1.13
- relative viability ([3]; first compound 2.53 µM): 1.1
- relative viability ([3]; first compound 8 µM): 1.21
- relative viability ([4]; first compound 0.08 µM): 0.655
- relative viability ([4]; first compound 0.253 µM): 0.688
- relative viability ([4]; first compound 0.8 µM): 1.02
- relative viability ([4]; first compound 2.53 µM): 0.933
- relative viability ([4]; first compound 8 µM): 0.882
